Legend:
[1] = target: PyasOBP2; experiment: Fluorescence competitive binding assay with 1-NPN as probe; design: species or system Pachyrhinus yasumatsui; settings: for IC50 / Ki: PyasOBP2 2 μM, 1-NPN 2 μM; for IC50: ligand 0 to 20 μM, three replicates; for Ki: dissociation constant calculated from IC50 by Ki=IC50/(1+[1-NPN]/K1-NPN); for binding to PyasOBP2 (in words): fluorescence competitive binding, ligand up to 20 μM
Description: (§1) Fluorescence competitive binding assays were carried out on an F-2700 fluorescence spectrophotometer (Hitachi, Tokyo, Japan) to determine the binding affinity of PyasOBP2. 1-N-phenyl-naphthylamine (1-NPN) was used as a fluorescent probe ([Pelosi et al., 2006]) with excitation at 337 nm, and the emission spectra were measured from 370 to 550 nm. Based on gas chromatography-mass spectrometry (GC-MS) and previous studies ([Yan et al., 2017]; [Yan et al., 2020]), 38 volatiles derived from Z. jujuba were selected as putative ligands for fluorescence competitive binding assays (Table 2). 1-NPN and all ligands used in binding assays were diluted in methanol to 1 mM stock solutions. To measure the binding affinity of PyasOBP2 with 1-NPN, PyasOBP2 solution (with a final concentration of 2 μM) was titrated with 1-NPN to final concentrations ranging from 2 to 20 μM. In ligand-binding assays, each ligand with a concentration ranging from 0 to 20 μM was added into a mixture of PyasOBP2 (2 μM) and 1-NPN (2 μM), and maximal fluorescence intensities were plotted against ligand concentrations based on three replicates.
The dissociation constant K1-NPN (for PyasOBP2 binding with 1-NPN) was calculated with Scatchard plotting of binding data in the GraphPad Prism 8.0 Software ([Sideris et al., 1992]). The dissociation constant (Ki) of each ligand was calculated with Eq. 3, as described by [Cui et al. (2018)]. The ligand binding affinity to PyasOBP2 was considered as very strong (Ki≤5 μM), strong (5 μM<Ki≤10 μM), moderate (10 μM<Ki≤20 μM) and weak (Ki>20 μM) in this study. Ki=IC50/(1+[1−NPN]/K1−NPN) (3)

[2] = tested on: P. yasumatsui adults; design: method as in Yan et al., 2017; Yan et al., 2020; settings: volatiles emitted from jujube shoots, ref Yan et al., 2017, 2020; cited from earlier work
[3] = tested on: adult P. yasumatsui antennae; design: method as in Yan et al., 2017; Yan et al., 2020; settings: ref Yan et al., 2017, 2020; cited from earlier work
[4] = target: PyasOBP2; experiment: Binding of fluorescent probe 1-NPN to PyasOBP2 (titration, Scatchard plot); design: species or system Pachyrhinus yasumatsui; settings: PyasOBP2 2 μM titrated with 1-NPN 2 to 20 μM, read-out: dissociation constant of PyasOBP2 with 1-NPN
Description: as §1, with “To measure the binding affinity of PyasOBP2 with 1-NPN, PyasOBP2 solution (with a final concentration of 2 μM) was titrated with 1-NPN to final concentrations ranging from 2 to 20 μM.” left out
The dissociation constant K1-NPN (for PyasOBP2 binding with 1-NPN) was calculated with Scatchard plotting of binding data in the GraphPad Prism 8.0 Software ([Sideris et al., 1992]). The dissociation constant (Ki) of each ligand was calculated with Eq. 3, as described by [Cui et al. (2018)]. […]

C=CC(C)(O)CCC=C(C)C (centres unmarked) [Linalool]
IC50 [1]: 11.6 µM
Ki [1]: 9.88 µM
Ki ([1]; listed as linalool): < 10 µM

CC1=CCC2CC1C2(C)C (stereo not drawn) [α-Pinene]
IC50 [1]: 10.8 µM
Ki [1]: 9.18 µM

C=CC(O)CC (centres unmarked) [1-Penten-3-ol]
IC50 [1]: > 20 µM

CCOC(=O)CC(C)C [Ethyl isovalerate]
IC50 [1]: > 20 µM

CCCCC(=O)OCC [Ethyl valerate]
IC50 [1]: > 20 µM

CC/C=C\CCO [cis-3-Hexen-1-ol]
IC50 [1]: 8.06 µM
Ki [1]: 6.85 µM
Ki ([1]; listed as cis-3-hexen-1-ol): < 10 µM

C=C/C(C)=C/C/C=C(\C)CCC=C(C)C [α-farnesene]
attraction of adults [2]: significantly attracted

CC(C)C=O [Isobutyraldehyde]
IC50 [1]: 13 µM
Ki [1]: 11 µM

C=CCc1ccc(O)c(OC)c1 [Eugenol]
IC50 [1]: > 20 µM
binding to PyasOBP2 (in words) [1]: could not bind to PyasOBP2

C=C1CC/C=C(\C)CC[C@@H]2[C@@H]1CC2(C)C [β-Caryophyllene]
IC50 [1]: > 20 µM

CC1=CCC2C(C1)C2(C)C (centres unmarked) [3-Carene]
IC50 [1]: > 20 µM
Ki [1]: > 20 µM

C=CC(C)(O)CCC=C(C)CCC=C(C)C (mixture of isomers) [Nerolidol]
IC50 [1]: 7.54 µM
Ki [1]: 6.41 µM
Ki ([1]; listed as nerolidol): < 10 µM

OCc1ccccc1 [Benzyl alcohol]
IC50 [1]: 16.2 µM
Ki [1]: 12 µM

CCC/C=C/C=O [trans-2-Hexen-1-al]
IC50 [1]: 15.8 µM
Ki [1]: 13.4 µM

CCCCCCCCC=O [Nonanal]
attraction of adults [2]: significantly attracted
EAG response [3]: strong EAG responses
IC50 [1]: 15.6 µM
Ki [1]: 13.2 µM
Ki ([1]; listed as nonanal): < 20 µM

C=CC(C)=CCC=C(C)C [Ocimene]
attraction of adults [2]: significantly attracted
EAG response [3]: strong EAG responses
IC50 [1]: 10.5 µM
Ki [1]: 8.92 µM
Ki ([1]; listed as ocimene): < 10 µM

CC(C)=CCC/C(C)=C/CC/C(C)=C/CC/C=C(\C)CC/C=C(\C)CCC=C(C)C [Squalene]
IC50 [1]: > 20 µM
binding to PyasOBP2 (in words) [1]: could not bind

CC(C)=Cc1ccccc1 [2-Methyl-1-phenylpropene]
IC50 [1]: 5.42 µM
Ki [1]: 4.61 µM

CCCCCCC=O [Heptaldehyde]
IC50 [1]: 15.4 µM
Ki [1]: 11.4 µM

CC/C=C\CCOC(C)=O [cis-3-Hexenyl acetate]
IC50 [1]: > 20 µM

CC(C)=CCCC(C)=CC#N [Geranyl nitrile]
IC50 [1]: > 20 µM
binding to PyasOBP2 (in words) [1]: could not bind to PyasOBP2

N#Cc1ccccc1 [Benzonitrile]
IC50 [1]: > 20 µM
binding to PyasOBP2 (in words) [1]: could not bind to PyasOBP2

CCCCCCCC/C=C\CCCCCCCC(=O)OC [Methyl oleate]
IC50 [1]: > 20 µM
binding to PyasOBP2 (in words) [1]: could not bind

CC/C=C\CCOC(=O)C(C)CC (stereo not drawn) [2-Methylbutyric Acid cis-3-Hexen-1-yl Ester]
IC50 [1]: 11.9 µM
Ki [1]: 10.1 µM

c1ccc(Nc2cccc3ccccc23)cc1 [1-NPN, 1-N-phenyl-naphthylamine]
Kd [4]: 5.66 µM

CCCC(=O)OCC [Ethyl butyrate]
IC50 [1]: 3.55 µM
Ki [1]: 3.02 µM
Ki ([1]; listed as ethyl butyrate): < 5 µM

CCCCCCCCCCCCCCCC(=O)OC [Methyl palmitate]
attraction of adults [2]: significantly attracted
EAG response [3]: strong EAG responses
IC50 [1]: > 20 µM
Ki [1]: > 20 µM
binding to PyasOBP2 (in words) [1]: could not bind

CC/C=C\CCOC(=O)CC(C)C [cis-3-Hexenyl 3-methylbutanoate]
IC50 [1]: > 20 µM

CCOC(=O)C(C)CC (centres unmarked) [Ethyl 2-methylbutyrate]
IC50 [1]: > 20 µM

C=C(C)[C@H]1CC=C(C)CC1 [Dipentene]
IC50 [1]: 7.05 µM
Ki [1]: 5.99 µM
Ki ([1]; listed as dipentene): < 5 µM

CC1=CC[C@H](C(C)C)C=C1 [α-Phellandrene]
IC50 [1]: 10.7 µM
Ki [1]: 9.12 µM

C=CC(=C)CCC=C(C)C [Myrcene]
IC50 [1]: 11.8 µM
Ki [1]: 8.92 µM

CCCCOC(C)=O [Butyl acetate]
IC50 [1]: > 20 µM
Ki [1]: > 20 µM

CCCCCCCCCCCC [Dodecane]
IC50 [1]: > 20 µM
binding to PyasOBP2 (in words) [1]: could not bind to PyasOBP2

CCCCOC(=O)c1ccccc1C(=O)OCCCC [Dibutyl phthalate]
IC50 [1]: 10.5 µM
Ki [1]: 7.73 µM

CCCCCC=O [Caproaldehyde]
IC50 [1]: 10.9 µM
Ki [1]: 8.03 µM

CC12CCC(CC1)C(C)(C)O2 [Eucalyptol]
IC50 [1]: 15.1 µM
Ki [1]: 12.8 µM

CCCCCCCC=O [Octanal]
IC50 [1]: 7.81 µM
Ki [1]: 6.64 µM

C=C1C2CCC(C2)C1(C)C (centres unmarked) [Camphene]
IC50 [1]: 8.33 µM
Ki [1]: 7.08 µM

CCC/C=C/CO [trans-2-Hexen-1-ol]
IC50 [1]: 8.93 µM
Ki [1]: 6.6 µM
Ki ([1]; listed as trans-2-hexen-1-ol): < 10 µM

From PMC9091336, “Functional Characterization of Odorant Binding Protein PyasOBP2 From the Jujube Bud Weevil, Pachyrhinus yasumatsui (Coleoptera: Curculionidae)” (Frontiers in Physiology, 2022)
